What was measured:
[1] = parameters: method as in PMID 20795794, PMID 18042005; details: slow infusion 20-30 min; cited from earlier work
rodent model of TBI [2] = assay: Mortality after severe impact-acceleration TBI; type: in vivo, Sprague Dawley rats; details: rat severe TBI, 10 mg/kg 30 min after injury
Procedure: Injury was induced using an impact-acceleration model of TBI which generates a rodent form of diffuse axonal injury, a major feature of clinical head injury. The level of injury induced in these studies was classified as “severe” [60]. In terms of assessing treatment effects, the study was performed in a blinded manner. […] In line with the “severe” nature of the injury, significant mortality rates were observed within the cohort of injured animals. However, the mortality rates varied between the treatment groups. In the “drug vehicle” group, a mortality rate of 30% was observed, which is in line with the nature of the injury.
Injury was induced in halothane-anesthetized (ProVet) male Sprague Dawley rats (400 ± 20 g) using acceleration-induced impact TBI [29, 93]. This model involves impacting a 10 mm diameter, 3 mm thick stainless steel disc fixed centrally to the exposed skull between the lambda and bregma with an accelerating impactor. The impactor was a 450 g brass weight dropped from a height of 2 m. Earlier studies have shown that the impact acceleration injury produces diffuse axonal injury, oedema, BBB opening, Mg^2+ decline, and moderate-to-severe neurologic deficits. All animals were fed and watered ad libitum before the induction of injury. […] Blood pressure was monitored, both before and after injury, using a femoral arterial line. […]

rodent model of TBI [3] = assay: Motor function after TBI, rotarod test; type: in vivo, Sprague Dawley rats; details: rat TBI, 10 mg/kg 30 min post-injury
Source text: The maximum duration of the task was 120 s.
Injury was induced in halothane-anesthetized (ProVet) male Sprague Dawley rats (400 ± 20 g) using acceleration-induced impact TBI [29, 93]. This model involves impacting a 10 mm diameter, 3 mm thick stainless steel disc fixed centrally to the exposed skull between the lambda and bregma with an accelerating impactor. The impactor was a 450 g brass weight dropped from a height of 2 m. […] All animals were fed and watered ad libitum before the induction of injury. During both surgery and the immediate recovery phase, rat rectal temperature was maintained using a thermostatically controlled heating pad. Immediately after injury, animals were manually ventilated until stable respiration was restored, usually in <5 min. After injury, all wounds were sutured. Blood pressure was monitored, both before and after injury, using a femoral arterial line.
Motor and cognitive outcomes in animals (n = 6 per group) were assessed using the rotarod and Barnes maze, respectively, as described in detail elsewhere [64]. The rotarod consists of a motorized rotating assembly of 18 rods (1 mm in diameter) upon which the animals were placed. The rotational speed of the device was increased from 0 to 30 r.p.m. and the duration (in seconds) when the animals either completed the task, fell from the rods, or gripped the rods and spun for two consecutive revolutions rather than walking actively was recorded as the rotarod score. […] After activating the bright lights and aversive auditory stimulus, the latency (in seconds) for the animal to locate and enter the escape tunnel was recorded. All animals were pretrained on both functional outcome tests twice per day over 5 days before injury to establish a normal, uninjured baseline.

rodent model of TBI [4] = assay: Cognitive function after TBI, Barnes maze; type: in vivo, Sprague Dawley rats; details: rat TBI, 10 mg/kg 30 min post-injury, 10 days
Procedure: Cognitive outcome was assessed using the Barnes maze in order to reduce the potential confounding effects that may be associated with tests such as the Morris water maze. In the Barnes maze, animals were placed under a cover in the centre of an elevated 1.2 m diameter board containing 19 holes around the periphery. One hole contained the entrance to a darkened escape tunnel that was not visible from the surface, relying on the animal to use surrounding visual cues to locate the tunnel. The time, in seconds, for the animal to locate and enter the escape tunnel was recorded. Following pre-training, the effect of injury, and post-injury treatment, on the time taken for the animal to locate the tunnel was measured (Figure 7). […]
Injury was induced in halothane-anesthetized (ProVet) male Sprague Dawley rats (400 ± 20 g) using acceleration-induced impact TBI [29, 93]. […] Blood pressure was monitored, both before and after injury, using a femoral arterial line. […]
Motor and cognitive outcomes in animals (n = 6 per group) were assessed using the rotarod and Barnes maze, respectively, as described in detail elsewhere. […] The rotational speed of the device was increased from 0 to 30 r.p.m. and the duration (in seconds) when the animals either completed the task, fell from the rods, or gripped the rods and spun for two consecutive revolutions rather than walking actively was recorded as the rotarod score. […]

NK1R = details: cited from earlier work
[5] = parameters: method as in PMID 20795794; details: parent drug; cited from earlier work

Question: For `C[C@@H](O[C@H]1OCCN(Cc2nc(O)n(P(=O)(O)O)n2)[C@H]1c1ccc(F)cc1)c1cc(C(F)(F)F)cc(C(F)(F)F)c1` [Fosaprepitant, fosaprepitant], which “Time to conversion to aprepitant after end of infusion” value [1] is on record?
Answer: ≤ 30 min

Question: With `C[C@]12N[C@H](Cc3ccccc31)c1ccccc12` [MK801] as the compound, how does the Mortality rate (rodent model of TBI [2]) read?
Answer: 48%

Question: What about the “Motor function, rotarod score” value (rodent model of TBI [3]; 10 days) of the same compound?
Answer: did not provide any beneficial outcome relative to the drug vehicle

Question: What about the “Recovery of motor function over the 10-day test period” value (rodent model of TBI [3]; rotarod) of the same compound?
Answer: approximately 50%

Question: What about the “Cognitive function, Barnes maze time to locate escape tunnel” value (rodent model of TBI [4]) of the same compound?
Answer: performance returning close to pre-injury by the end of the study period

Question: For `CC(=O)N[C@@H](Cc1c[nH]c2ccccc12)C(=O)O` [NAT, N-acetyl-L-tryptophan], which NK1R binding (NK1R) is on record?
Answer: lack of NK1R binding

Question: With `C[C@@H](O[C@H]1OCCN(Cc2n[nH]c(=O)[nH]2)[C@H]1c1ccc(F)cc1)c1cc(C(F)(F)F)cc(C(F)(F)F)c1` [aprepitant] as the compound, how does the Aqueous solubility [5] read?
Answer: 0.2 µg/mL
